Test results reported in patent US20120077705A1, “Methods for Identifying Autophagy Inducing Compounds” (President and Fellows of Harvard College, priority 2007, published 2012).
Values joined by “and” are separate entries in the source; they are usually repeats but may differ in a detail not shown here. Identical values can stand only once. Like-named read-outs stand apart in the source and are kept apart here.

How the values were obtained:
GFP-polyQ-HA = test: Degradation of expanded polyglutamine (GFP-polyQ-HA) in transfected H4 cells, anti-HA blot; assay type: cell-based
Description: Large-scale accumulation of misfolded protein is a prominent feature of many neurodegenerative diseases. For example, the pathogenic mechanism of Huntington's disease is that a large amount of polyglutamine (polyQ) protein accumulates in the neurons and cannot be cleared away. Tests of polyQ elimination and degradation were used in this experiment to further determine the ability if the tested compounds to induce autophagy.
The compounds selected through screening were dissolved in DMSO and diluted in a stepwise manner in complete culture medium.

H4-LC3 cells = assay type: cell-based
Description: H4 cells were transfected with the LC3-GFP fusion protein, thereby creating, screening, and yielding an H4-LC3 cell line as a screening platform in order to perform high-content screening of 480 known bioactive compounds (ICCB known bioactive library, BIOMOL), using the following method. DMSO was used to dilute, dissolve, and prepare a compound at different concentrations with each concentration repeated three times. A 96-well plate was inoculated with H4-LC3 cells at an appropriate density and treated for 24 hours with the compound. […] If a compound affected LC3 expression or distribution, then this would be embodied precisely in the image and in the size and intensity of fluorescent spots and the like numerical values. This experiment was repeated three times, and the 72 compounds for which LC3-GFP fluorescent intensity was more than 50% greater than that of the blank control group in the three experiments were selected for analysis. Based on the number of cells determined through counting, those compounds in which cell death exceeded 30% (in comparison with the control group) were eliminated. The remaining compounds were further studied as candidate molecules.

FYVE-RFP = test: High-content analysis of FYVE-RFP fluorescence (PI(3)P level) in H4-FYVE cell line; assay type: cell-based
Description: Class III PI(3)K Vps34 is a multifunctional protein. On the one hand, it catalyzes the phosphorylation of PI to generate PI(3)P and is of key importance in the endocytic and autophagosome membrane transport processes. At the same time, a compound formed from Vps34/beclin1 is involved in the regulation of autophagy initiation signaling. Therefore, while the autophagy process is taking place, the level of PtdIns(3)P should not be expected to decrease to a significant extent. A FYVE domain is a protein structure domain composed of approximately 70 amino acid residues and containing a zinc finger protein structure; it can bind specifically with PI(3)P. Generally, PI(3)P recruits proteins containing a FYVE domain in order to bind to the membrane of cellular organelles, and participate in protein trafficking and similar processes.
H4 cells were transfected with the fusion protein FYVP-red fluorescent protein (FYVE-RFP). After transfection, the cells were screened in order to obtain a suitable H4-FYVE cell line to be used as a screening platform to perform high-volume screening of compounds, which thereby indirectly reflected the effect of the compound on autophagy. Compounds which reduced FYVE-RFP fluorescence intensity were eliminated. In this experiment, change in the intensity, fluorescence and distribution of the protein marker FYVE-RFP recruited by PI(3)P before and after treatment with the potential autophagy inducing compound was assayed by high-content microscopic analysis.
DMSO was used to dilute, dissolve, and prepare a compound at different concentrations with each concentration repeated three times. A 96-well plate was inoculated with H4-FYVE cells at an appropriate density and treated with the compound for 2, 4, and 8 hours, respectively. […] If a compound affected FYVE expression or distribution, then this would be embodied precisely in the image and in the size and intensity of fluorescent spots and other numerical values.

LC3 II = test: Western blot of LC3 II in H4-LC cells; assay type: cell-based
Description: The autophagosome marker LC3 used in the compound-screening platform was subjected to the foregoing processing in the cytosol. Generally when the new LC3 synthesized within the cell was processed, it became cytosolic soluble LC3 I with molecular weight 18 Kd. […] The quantity of LC3 II content reflects to a certain degree the autophagic activity of a cell. Therefore, by assaying the content of LC3 II in the cell by means of the Western blot method, it is possible to further reflect the effect of the compound on autophagy.
H4-LC cells at an appropriate density were inoculated onto a 6-well plate, which was treated with a compound for 4 hours, after which the cells were collected and lysed. The protein fraction was harvested and SDS-PAGE was performed. Following electrophoresis separation the proteins were transferred to a membrane, and immunoblot analysis was performed. The cytoskeleton protein, actin, was used as an internal control.

long-lived proteins = test: Degradation of (3H) L-leucine labelled long-lived proteins in H4 cells; assay type: cell-based; conditions: relative to blank control
Description: The process of autophagy is a protein degradation process, which primarily mediates the degradation of cellular organelles and long-lived proteins within the cell. Therefore, in the present experiment the detection of whether a compound promotes the degradation of long-lived proteins within the cell was used as an additional indicator of whether the tested compound induces autophagy.
DMSO was used to dilute, dissolve, and prepare a compound at different concentrations with each concentration repeated three times. A 96-well plate was inoculated with H4 cells at an appropriate density and treated with the compound for 2, 4, and 24 hours, respectively. […] One day prior to the experiment, cells were inoculated onto a 12-well plate at an appropriate density and cultured under normal conditions (DMEM +10% fetal calf serum). […] Then, a complete medium containing (3H) L-leucine was used to incubate the cells for 24 hours causing the cells to take in isotope-labeled leucine and undertake protein synthesis. After 24 hours, a complete culture medium was substituted and used to incubate the cells for 24 hours to degrade short-lived proteins. After the short-lived proteins had been degraded, a complete culture medium to which the compound had been added was substituted and used to incubate the cells. The radiation intensity of the culture medium was tested at 0, 1, 2, 4, and 24 hours, respectively. At 24 hours, the cells were collected and the intensity of the isotope within the cells was tested, and the percent of long-lived protein degradation relative to the blank control group at different times after the action of the compound was computed. Compounds that increased the degradation of long-lived proteins were selected by means oft-test.

[1] = tested on: Ca2+-activated K+ channels; conditions: 10-nM penitrem A; cited from earlier work
[2] = H4 cells transfected with GFP-polyQ-HA, 24 hours, screening concentration and dilutions 1:2.5, 1:5, 1:10, FIG. 2
[3] = H4-LC cells, 4 hours, immunoblot, FIG. 1

Structure (SMILES)	polyQ degradation (GFP-polyQ-HA)	Relative quantity of cells (%) (H4-LC3 cells; human)	Relative fluorescent intensity of FYVE-RFP (%) (FYVE-RFP)	Increase of endogenous LC3 II / LC3 II/LC3 I percentage (LC3 II)	Percent relative degradation of long-lived proteins (%) (long-lived proteins; 1 h)	Percent relative degradation of long-lived proteins (%) (long-lived proteins; 2 h)	Percent relative degradation of long-lived proteins (%) (long-lived proteins; 4 h)	Percent relative degradation of long-lived proteins (%) (long-lived proteins; 24 h)	Blockage of Ca2+-activated K+ channels [1] [%]	polyQ degradation (GFP-polyQ-HA; [2])	Destruction of H4 cells (H4-LC3 cells; H4 cells)	Relative fluorescent intensity of FYVE-RFP (%) (FYVE-RFP; H4-FYVE cells, 2 h)	Relative fluorescent intensity of FYVE-RFP (%) (FYVE-RFP; H4-FYVE cells, 4 h)	Relative fluorescent intensity of FYVE-RFP (%) (FYVE-RFP; H4-FYVE cells, 8 h)	Increase of endogenous LC3 II / LC3 II/LC3 I percentage (LC3 II; [3])
COC(=O)C1=C(C)NC(C)=C(C(=O)OCCCN2CCC(c3ccccc3)(c3ccccc3)CC2)C1c1cccc([N+](=O)[O-])c1.Cl (stereo not shown) [Niguldipine]	increased polyQ degradation	132.78 ± 18.11	147.18 ± 25.39% and 148.26 ± 3.67% and 125.53 ± 2.84%	increase of endogenous LC3 II	71.65 ± 2.68	107.42 ± 2.72	105.68 ± 2.74	117.85 ± 1.98							
C=C(C)[C@H]1O[C@H]2CC[C@@]3(C)[C@@](O)(CC[C@H]4[C@@H]5OC(C)(C)[C@H]6C[C@@H]7C(=C)Cc8c(Cl)cc9[nH]c(c5c9c8[C@@]76O)[C@@]43C)[C@]23O[C@@H]3[C@H]1O [Penitrem A]					92.88 ± 2.83	126.09 ± 0.47	132.13 ± 10.01	141.83 ± 1.25	100	increased polyQ degradation	does not destroy H4 cells	121.40 ± 12.66	87.41 ± 5.90	72.71 ± 5.57	increase of endogenous LC3 II
O=c1[nH]c2ccccc2n1C1CCN(CCCC(c2ccc(F)cc2)c2ccc(F)cc2)CC1 [Pimozide]					129.13 ± 11.46	155.80 ± 9.22	152.01 ± 9.63	162.47 ± 3.50		increased polyQ degradation		94.42 ± 4.71	103.96 ± 9.06	73.64 ± 12.18	increase of endogenous LC3 II
CN1CCN(CCCN2c3ccccc3Sc3ccc(C(F)(F)F)cc32)CC1 [Trifluoperazine]					76.62 ± 2.32	105.60 ± 5.01	109.00 ± 5.22	124.78 ± 2.05		increased polyQ degradation		136.58 ± 15.74	111.52 ± 13.45	94.28 ± 2.87	increase of endogenous LC3 II
